Results taken from patent US20260042755A1, “GPR6 INVERSE AGONISTS” (MapLight Therapeutics, Inc., priority 2022, published 2026).

Legend:
[1] = target: T1, GPR6 (Homo sapiens, UniProt P46095); assay: GPR6 antagonist functional cAMP assay (LANCE Ultra cAMP TR-FRET, CHO cells stably expressing GPR6); format: cell-based
T1 construct: expressed in transfected cells; host or cells: CHO cells
In short: (§1)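 We measure cAMP by TR-FRET (665 nm) in cells held in glucose-containing Krebs-Ringer buffer with BSA and a PDE inhibitor, after a 45 min, 37 °C compound incubation. IC50s derive from a four-parameter logistic fit.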

[2] = target: T2, GPR3 (Homo sapiens, UniProt P46089); assay: GPR3 antagonist functional cAMP assay (LANCE Ultra cAMP TR-FRET, CHO cells stably expressing GPR3); format: cell-based
T2 construct: expressed in transfected cells; host or cells: CHO cells
T2 sequence (P46089 whole entry, species assumed): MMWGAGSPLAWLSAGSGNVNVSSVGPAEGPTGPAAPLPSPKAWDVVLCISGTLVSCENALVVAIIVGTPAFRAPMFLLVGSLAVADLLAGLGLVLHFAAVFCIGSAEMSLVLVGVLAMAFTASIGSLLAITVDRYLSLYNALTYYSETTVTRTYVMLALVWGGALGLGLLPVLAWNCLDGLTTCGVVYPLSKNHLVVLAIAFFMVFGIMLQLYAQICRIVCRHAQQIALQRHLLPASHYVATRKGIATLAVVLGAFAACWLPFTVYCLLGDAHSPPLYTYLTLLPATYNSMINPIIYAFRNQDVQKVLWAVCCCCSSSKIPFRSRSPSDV
In short: as §1

[3] = CHO cells stably expressing GPR6, cAMP assay (Example 24)
[4] = CHO cells stably expressing GPR3, cAMP assay (Example 24)

T1 sequence (P46095 whole entry): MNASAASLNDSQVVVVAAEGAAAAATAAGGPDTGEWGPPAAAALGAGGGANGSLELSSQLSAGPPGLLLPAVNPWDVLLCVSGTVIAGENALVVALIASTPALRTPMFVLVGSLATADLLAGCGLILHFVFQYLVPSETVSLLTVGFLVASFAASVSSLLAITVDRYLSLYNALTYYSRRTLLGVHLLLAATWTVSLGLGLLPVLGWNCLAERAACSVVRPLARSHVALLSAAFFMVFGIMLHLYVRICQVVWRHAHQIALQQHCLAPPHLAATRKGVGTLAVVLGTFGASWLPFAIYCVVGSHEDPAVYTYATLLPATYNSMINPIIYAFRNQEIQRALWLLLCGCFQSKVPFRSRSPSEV

SMILES: COC1CCC(c2nc3c(nc2N2CCC(Oc4ccc(F)cc4F)CC2)CCN(C(C)=O)C3)CC1 (centres unmarked) [Compound 373, 1-(2-(4-(2,4-difluorophenoxy)piperidin-1-yl)-3-(4-methoxycyclohexyl)-7,8-dihydropyrido[3,4-b]pyrazin-6(5H)-yl)ethan-1-one]
- IC50 ([1]; procedure of Example 24): 100 to 1000 nM
- IC50 ([2]; procedure of Example 24): 1000 to 30000 nM

SMILES: CC(=O)N1CCc2nc(N3CCC(Oc4ccc(F)cc4F)CC3)c(C3CCC(O)CC3)nc2C1 (centres unmarked) [Compound 374, 1-(2-(4-(2,4-difluorophenoxy)piperidin-1-yl)-3-(4-hydroxycyclohexyl)-7,8-dihydropyrido[3,4-b]pyrazin-6(5H)-yl)ethan-1-one]
- IC50 ([1]; procedure of Example 24): 1000 to 30000 nM
- IC50 ([2]; procedure of Example 24): 1000 to 30000 nM

SMILES: CC(=O)N1CCc2nc(N3CCC(Cc4ccc(F)cc4F)CC3)c(-c3cnn(C)c3)nc2C1 [Compound 375, 1-(2-{4-[(2,4-difluorophenyl)methyl]piperidin-1-yl}-3-(1-methyl-1H-pyrazol-4-yl)-5H,6H,7H,8H-pyrido[3,4-b]pyrazin-6-yl)ethan-1-one]
- IC50 ([1]; procedure of Example 24): < 100 nM
- IC50 ([2]; procedure of Example 24): 100 to 1000 nM

SMILES: Cn1cc(-c2nc3c(O)nccc3nc2N2CCC(Oc3ccc(F)cc3F)CC2)cn1 [Compound 376, 2-[4-(2,4-difluorophenoxy)piperidin-1-yl]-3-(1-methyl-1H-pyrazol-4-yl)pyrido[3,4-b]pyrazin-5-ol]
- IC50 ([1]; procedure of Example 24): 1000 to 30000 nM
- IC50 ([2]; procedure of Example 24): 1000 to 30000 nM

SMILES: Cn1cc(-c2nc3cnc(CC(O)CO)cc3nc2N2CCC(Oc3ccc(F)cc3F)CC2)cn1 (centres unmarked) [Compound 377, 3-(2-(4-(2,4-difluorophenoxy)piperidin-1-yl)-3-(1-methyl-1H-pyrazol-4-yl)pyrido[3,4-b]pyrazin-7-yl)propane-1,2-diol]
- IC50 [1, 3]: 100 to 1000 nM
- IC50 [2, 4]: 1000 to 30000 nM

SMILES: COCCNc1cc2nc(N3CCC(Oc4ccc(F)cc4F)CC3)c(-c3cnn(C)c3)nc2cn1 [Compound 380, 2-[4-(2,4-difluorophenoxy)piperidin-1-yl]-N-(2-methoxyethyl)-3-(1-methyl-1H-pyrazol-4-yl)pyrido[3,4-b]pyrazin-7-amine]
- IC50 [1, 3]: 100 to 1000 nM
- IC50 [2, 4]: 1000 to 30000 nM

SMILES: COCCOc1cc2nc(N3CCC(Oc4ccc(F)cc4F)CC3)c(-c3cnn(C)c3)nc2cn1 [Compound 381, 4-(2,4-difluorophenoxy)-1-[7-(2-methoxyethoxy)-3-(1-methyl-1H-pyrazol-4-yl)pyrido[3,4-b]pyrazin-2-yl]piperidine]
- IC50 [1, 3]: 100 to 1000 nM
- IC50 [2, 4]: 1000 to 30000 nM

SMILES: Cn1cc(-c2nc3cnc(OC4COC4)cc3nc2N2CCC(Oc3ccc(F)cc3F)CC2)cn1 [Compound 382, 4-(2,4-difluorophenoxy)-1-[3-(1-methyl-1H-pyrazol-4-yl)-7-(oxetan-3-yloxy)pyrido[3,4-b]pyrazin-2-yl]piperidine]
- IC50 [1, 3]: 100 to 1000 nM
- IC50 [2, 4]: 1000 to 30000 nM

SMILES: CC(=O)N1CCc2nc(N3CCC(Oc4cccc(F)c4)C3)c(-c3cnn(C)c3)nc2C1 (centres unmarked) [Compound 383, 1-{2-[3-(3-fluorophenoxy)pyrrolidin-1-yl]-3-(1-methyl-1H-pyrazol-4-yl)-5H,6H,7H,8H-pyrido[3,4-b]pyrazin-6-yl}ethan-1-one]
- IC50 [1, 3]: 1000 to 30000 nM
- IC50 [2, 4]: 1000 to 30000 nM

SMILES: CC(=O)N1CCc2nc(N3CCN(Cc4ccc(C(F)(F)F)cc4)CC3)c(-c3cnn(C)c3)nc2C1 [Compound 384, 1-[3-(1-methyl-1H-pyrazol-4-yl)-2-(4-{[4-(trifluoromethyl)phenyl]methyl}piperazin-1-yl)-5H,6H,7H,8H-pyrido[3,4-b]pyrazin-6-yl]ethan-1-one]
- IC50 [1, 3]: 1000 to 30000 nM
- IC50 [2, 4]: 1000 to 30000 nM

SMILES: CC(=O)N1CCc2nc(N3CCC(C(=O)N(C)c4ccc(F)cc4)C3)c(-c3cnn(C)c3)nc2C1 (centres unmarked) [Compound 385, 1-[6-acetyl-3-(1-methyl-1H-pyrazol-4-yl)-5H,6H,7H,8H-pyrido[3,4-b]pyrazin-2-yl]-N-(4-fluorophenyl)-N-methylpyrrolidine-3-carboxamide]
- IC50 [1, 3]: ≥ 30000 nM
- IC50 [2, 4]: 1000 to 30000 nM

SMILES: CC(=O)N1CCc2nc(N3CCC(C(=O)NCc4ccc(F)cc4F)C3)c(-c3cnn(C)c3)nc2C1 (centres unmarked) [Compound 386, 1-[6-acetyl-3-(1-methyl-1H-pyrazol-4-yl)-5H,6H,7H,8H-pyrido[3,4-b]pyrazin-2-yl]-N-[(2,4-difluorophenyl)methyl] pyrrolidine-3-carboxamide]
- IC50 [1, 3]: ≥ 30000 nM
- IC50 [2, 4]: 1000 to 30000 nM

SMILES: CC(=O)N1CCc2nc(N3CCC(C(=O)N(C)Cc4ccc(F)cc4F)C3)c(-c3cnn(C)c3)nc2C1 (centres unmarked) [Compound 387, 1-[6-acetyl-3-(1-methyl-1H-pyrazol-4-yl)-5H,6H,7H,8H-pyrido[3,4-b]pyrazin-2-yl]-N-[(2,4-difluorophenyl)methyl]-N-methylpyrrolidine-3-carboxamide]
- IC50 [1, 3]: 1000 to 30000 nM
- IC50 [2, 4]: 1000 to 30000 nM

SMILES: CC(=O)N1CCc2nc(N3CCC(C(=O)N(C)C)C3)c(-c3cnn(C)c3)nc2C1 (centres unmarked) [Compound 388, 1-[6-acetyl-3-(1-methyl-1H-pyrazol-4-yl)-5H,6H,7H,8H-pyrido[3,4-b]pyrazin-2-yl]-N,N-dimethylpyrrolidine-3-carboxamide]
- IC50 [1, 3]: ≥ 30000 nM
- IC50 [2, 4]: 100 to 1000 nM

SMILES: CC(=O)N1CCc2nc(N3CCC(C(=O)N4CCOCC4)C3)c(-c3cnn(C)c3)nc2C1 (centres unmarked) [Compound 389, 1-[3-(1-methyl-1H-pyrazol-4-yl)-2-[3-(morpholine-4-carbonyl)pyrrolidin-1-yl]-5H,6H,7H,8H-pyrido[3,4-b]pyrazin-6-yl]ethan-1-one]
- IC50 [1, 3]: ≥ 30000 nM
- IC50 [2, 4]: 1000 to 30000 nM

SMILES: CC(=O)N1CCc2nc(N3CCC(C(=O)N4CCN(C)C(=O)C4)C3)c(-c3cnn(C)c3)nc2C1 (centres unmarked) [Compound 390, 4-{1-[6-acetyl-3-(1-methyl-1H-pyrazol-4-yl)-5H,6H,7H,8H-pyrido[3,4-b]pyrazin-2-yl]pyrrolidine-3-carbonyl}-1-methylpiperazin-2-one]
- IC50 [1, 3]: 1000 to 30000 nM
- IC50 [2, 4]: 1000 to 30000 nM

SMILES: CC(=O)N1CCc2nc(N3CCC(C(=O)Nc4ccc(F)cc4)C3)c(-c3cnn(C)c3)nc2C1 (centres unmarked) [Compound 391, 1-[6-acetyl-3-(1-methyl-1H-pyrazol-4-yl)-5H,6H,7H,8H-pyrido[3,4-b]pyrazin-2-yl]-N-(4-fluorophenyl)pyrrolidine-3-carboxamide]
- IC50 [1, 3]: ≥ 30000 nM
- IC50 [2, 4]: 1000 to 30000 nM

SMILES: CC(=O)N1CCc2nc(N3CCC(C(=O)N(C)c4ccc(F)cc4F)C3)c(-c3cnn(C)c3)nc2C1 (centres unmarked) [Compound 392, 1-[6-acetyl-3-(1-methyl-1H-pyrazol-4-yl)-5H,6H,7H,8H-pyrido[3,4-b]pyrazin-2-yl]-N-(2,4-difluorophenyl)-N-methylpyrrolidine-3-carboxamide]
- IC50 [1, 3]: ≥ 30000 nM
- IC50 [2, 4]: 1000 to 30000 nM

SMILES: CC(=O)N1CCc2nc(N3CCC(Oc4cccc(F)c4)CC3)c(-c3cnn(C)c3)nc2C1 [Compound 393, 1-{2-[4-(3-fluorophenoxy)piperidin-1-yl]-3-(1-methyl-1H-pyrazol-4-yl)-5H,6H,7H,8H-pyrido[3,4-b]pyrazin-6-yl}ethan-1-one]
- IC50 [1, 3]: 1000 to 30000 nM
- IC50 [2, 4]: 1000 to 30000 nM

SMILES: CC(=O)N1Cc2nc(-c3cnn(C)c3)c(N3CCC(Oc4ccc(F)cc4F)CC3)nc2CC1C (centres unmarked) [Compound 394, 1-{2-[4-(2,4-difluorophenoxy)piperidin-1-yl]-7-methyl-3-(1-methyl-1H-pyrazol-4-yl)-5H,6H,7H,8H-pyrido[3,4-b]pyrazin-6-yl}ethan-1-one]
- IC50 [1, 3]: 100 to 1000 nM
- IC50 [2, 4]: 1000 to 30000 nM

SMILES: Cn1cc(-c2nc3cnc(O)cc3nc2N2CCC(Oc3ccc(F)cc3F)CC2)cn1 [Compound 395, 2-(4-(2,4-difluorophenoxy)piperidin-1-yl)-3-(1-methyl-1H-pyrazol-4-yl)pyrido[3,4-b]pyrazin-7-ol]
- IC50 [1, 3]: 1000 to 30000 nM
- IC50 [2, 4]: 1000 to 30000 nM

SMILES: CC(=O)N1CCc2nc(N3CC(Oc4ccc(F)cc4F)C3)c(-c3cnn(C)c3)nc2C1 [Compound 398, 1-{2-[3-(2,4-difluorophenoxy)azetidin-1-yl]-3-(1-methyl-1H-pyrazol-4-yl)-5H,6H,7H,8H-pyrido[3,4-b]pyrazin-6-yl}ethan-1-one]
- IC50 [1, 3]: 1000 to 30000 nM
- IC50 [2, 4]: 1000 to 30000 nM

SMILES: Cn1cc(-c2nc3cnc(OCCO)cc3nc2N2CCC(Oc3ccc(F)cc3F)CC2)cn1 [Compound 399, 2-({2-[4-(2,4-difluorophenoxy)piperidin-1-yl]-3-(1-methyl-1H-pyrazol-4-yl)pyrido[3,4-b]pyrazin-7-yl}oxy)ethan-1-ol]
- IC50 [1, 3]: 1000 to 30000 nM
- IC50 [2, 4]: 1000 to 30000 nM

SMILES: CCn1cc(-c2nc3c(nc2N2CCC(Oc4cc(Cl)ccc4Cl)CC2)CCN(C(C)=O)C3)cn1 [Compound 400, 1-{2-[4-(2,5-dichlorophenoxy)piperidin-1-yl]-3-(1-ethyl-1H-pyrazol-4-yl)-5H,6H,7H,8H-pyrido[3,4-b]pyrazin-6-yl}ethan-1-one]
- IC50 [1, 3]: 100 to 1000 nM
- IC50 [2, 4]: 1000 to 30000 nM

SMILES: CC(O)C(O)c1cc2nc(N3CCC(Oc4ccc(F)cc4F)CC3)c(-c3cnn(C)c3)nc2cn1 (centres unmarked) [Compound 401, 1-{2-[4-(2,4-difluorophenoxy)piperidin-1-yl]-3-(1-methyl-1H-pyrazol-4-yl)pyrido[3,4-b]pyrazin-7-yl}propane-1,2-diol]
- IC50 [1, 3]: 100 to 1000 nM
- IC50 [2, 4]: 1000 to 30000 nM

SMILES: Cn1cc(-c2nc3cnc(C(O)CC#N)cc3nc2N2CCC(Oc3ccc(F)cc3F)CC2)cn1 (centres unmarked) [Compound 402, 3-(2-(4-(2,4-difluorophenoxy)piperidin-1-yl)-3-(1-methyl-1H-pyrazol-4-yl)pyrido[3,4-b]pyrazin-7-yl)-3-hydroxypropanenitrile]
- IC50 [1, 3]: 1000 to 30000 nM
- IC50 [2, 4]: 1000 to 30000 nM

SMILES: CCn1cc(-c2nc3c(nc2N2CCC(Oc4cc(Cl)ccc4Cl)CC2)CCN(C(=O)CO)C3)cn1 [Compound 403, 1-{2-[4-(2,5-dichlorophenoxy)piperidin-1-yl]-3-(1-ethyl-1H-pyrazol-4-yl)-5H,6H,7H,8H-pyrido[3,4-b]pyrazin-6-yl}-2-hydroxyethan-1-one]
- IC50 [1, 3]: 100 to 1000 nM
- IC50 [2, 4]: 1000 to 30000 nM

SMILES: CC(=O)N1CCc2nc(N3CCC(Oc4ccc(F)cc4F)CC3)c(C3CCC(=O)CC3)nc2C1 [Compound 404, 4-(6-acetyl-2-(4-(2,4-difluorophenoxy)piperidin-1-yl)-5,6,7,8-tetrahydropyrido[3,4-b]pyrazin-3-yl)cyclohexan-1-one]
- IC50 [1, 3]: 1000 to 30000 nM
- IC50 [2, 4]: 1000 to 30000 nM
